This note sets out measurements from the supplement of paper PMC6723410.

Several values for one entry are separate records, joined by “and”; a condition that tells them apart may be missing. Equal values may be shown once.

The first assay relates to GUMC-403. The experiment in a line: viability at highest tested concentration (max response) relative to DMSO (% of DMSO control); higher = less cytotoxic. The note with it: library / dose series: MIPE library, 11-point 1:3 dilution; top concentration 46.1 µM; 48 h. The procedure, abridged: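 Each figure stands for viability at the highest tested concentration compared with vehicle control. It was measured by CellTiter-Glo luminescence on a ViewLux after 48 h of exposure to 23 nL of pinned compound, with vehicle wells taken as 100% and empty wells as 0%. The cells were patient-derived GUMC-403 papilloma cells grown by conditional reprogramming, plated at 700/well in 5 μL F + Y medium in 1536-well plates.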
On to `O=C/1\C=C(/OC(=C1)/C2=C3SC4=C(SC3=CC=C2)C=CC=C4)N5CCOCC5`, for which the viability amounted to 111.

In turn, `CCC(=O)O[C@@]1(CC[C@H]2[C@@H]3CCC/4=C/C(=O)CC[C@]4(C)[C@H]3CC[C@]12C)C(=O)CO` gave a viability of 119.

`O=c1oc2c(O)c(O)cc3c(=O)oc4c(O)c(O)cc1c4c23` gave a viability of 143.

For `C1CN\2C[C@@H](\N=C2S1)C3=CC=CC=C3`, the viability came out at 125.

In turn, `Cc1ccc(O)c(C(CCN(C(C)C)C(C)C)c2ccccc2)c1.Cl` (stereo not given) registered a viability of 125.

`CO/C1=C/C(C)=C\[C@@H](C)[C@@H](O)[C@@H](C)C/C(C)=C\C=C/[C@H](OC)[C@@H]([C@@H](C)[C@@H](O)[C@H](C)[C@@]2(O)C[C@@H](O)[C@H](C)[C@@H](C(C)C)O2)OC1=O`: the viability is 93.

In turn, `C=C1C(=O)OC(CCCCCCCC)C1C(=O)O` (stereo not given) came in with a viability of 121.

`CC(C)(C)OC(=O)CN(Cc1ccc(Cl)cc1)Cc1ccc([N+](=O)[O-])s1` came in with a viability of 97.7.

For the compound `Cc1ccc([S+](=O)([O-])N[C@@H](Cc2ccccc2)C(=O)CCl)cc1`, the viability is 90.3.

The compound `NCCS(=O)(=O)O` came in with a viability of 123.

`O=C(O)c1cccc(-c2noc(-c3ccccc3F)n2)c1` displayed a viability of 118.

Turning to `CC1(C)[C@@H](O[C@H]2O[C@H](C(=O)O)[C@@H](O)[C@H](O)[C@H]2O[C@@H]2O[C@H](C(=O)O)[C@@H](O)[C@H](O)[C@H]2O)CC[C@]2(C)[C@H]3C(=O)C=C4[C@@H]5C[C@@](C)(C(=O)O)CC[C@]5(C)CC[C@@]4(C)[C@]3(C)CC[C@@H]12`, the viability came to 115.

On to `COC(=O)[C@@H]1CC2=CC(=O)CC[C@]2(C)[C@@]23O[C@@H]2C[C@@]2(C)[C@@H](CC[C@@]24CCC(=O)O4)[C@H]13`, for which the viability was 128.

Consider `Cc1ccc(C(=O)Nc2ccc([S+](=O)([O-])O)c3cc([S+](=O)([O-])O)cc([S+](=O)([O-])O)c23)cc1NC(=O)c1cccc(NC(=O)Nc2cccc(C(=O)Nc3cc(C(=O)Nc4ccc([S+](=O)([O-])O)c5cc([S+](=O)([O-])O)cc([S+](=O)([O-])O)c45)ccc3C)c2)c1`, for which the viability turned out to be 123.

`COc1cc2nc(N3CCN(C(=O)C4CCCO4)CC3)nc(N)c2cc1OC` (stereo not given): the viability turned out to be 126.

On to `CC(C)=CCC/C(C)=C/CC/C(C)=C/CSc1ccccc1C(=O)O`, for which the viability came out at 72.

Take `C[N]1C=C(C=N1)C2=CC=C3N=CC\4=C(N(C(=O)\C=C4)C5=CC6=C(CCN6C(=O)C=C)C=C5)C3=C2`: the viability is 104.

As to `NC(=O)N1c2ccccc2CC(=O)c2ccccc21`, the viability came out at 111.

Compound `Cc1cc(O)c2c(c1)C(=O)c1cc(O)cc(O)c1C2=O` registered a viability of 114.

Compound `c1ccc2c(-c3cnn4cc(-c5ccc(N6CCNCC6)cc5)cnc34)ccnc2c1` gave a viability of 2.71.

As to `C[N+](C)([O-])CCNc1ccc(NCC[N+](C)(C)[O-])c2c1C(=O)c1c(O)ccc(O)c1C2=O`, the viability is 104.

In turn, `CCC(=O)OC1CCC2C3CCC/4=C/C(=O)CC[C@@]4(C)C3CC[C@]12C` (stereo not given in full) displayed a viability of 130.

`FC1=CC=C(C=C1)N2/C=C\C=C(C(=O)NC3=CC=C(OC4=C5C=C[NH]C5=NC=C4)C(=C3)F)/C2=O` yielded a viability of 98.8.

The compound `C[C@](O)(CS(=O)(=O)c1ccc(F)cc1)C(=O)Nc1ccc(C#N)c(C(F)(F)F)c1` came in with a viability of 128.

For `C[C@@H](Cc1cc2c(c(C(N)=O)c1)N(CCCO)CC2)NCCOc1ccccc1OCC(F)(F)F`, the viability worked out at 112.

Take `CN1C(=O)\C(=C/C2=C1N=C(NC3CCOCC3)N=C2)OC4=C(F)C=C(F)C=C4`: the viability came out at 85.5.

Compound `FC1=C(C=C(C\C2=N\NC(=O)C3=C2C=CC=C3)C=C1)C(=O)N4CCN(CC4)C(=O)C5CC5` yielded a viability of 82.6.

`CC(=O)SC[C@@H](C)C(=O)N1CCC[C@H]1C(=O)N[C@@H](Cc1ccccc1)C(=O)O` returned a viability of 135.

In turn, `CC[C@H]1OC(=O)[C@H](C)[C@@H](O[C@H]2C[C@@](C)(OC)[C@@H](O)[C@H](C)O2)[C@H](C)[C@@H](O[C@@H]2O[C@H](C)C[C@H](N(C)C)[C@H]2O)[C@](C)(O)C[C@@H](C)/C(=N\OCOCCOC)[C@H](C)[C@@H](O)[C@]1(C)O` yielded a viability of 83.3.

As to `C/C=C/C/C=C/CCC(=O)[C@H]1O[C@H]1C(N)=O`, the viability is 93.5.

As to `C=C1C(=O)O[C@@H]2[C@H]3O[C@]3(C)CC/C=C(\C)CC[C@@H]12`, the viability was determined as 108.

For the compound `Cc1ccccc1C(=O)Nc1ccc(C(=O)N2CCCC(O)c3cc(Cl)ccc32)c(C)c1` (stereo not given), the viability was determined as 108.

The compound `CC(=O)CC(C1=CC=CC=C1)C/2=C(O)/C3=CC=CC=C3OC2=O` (stereo not given) had a viability of 118.

In turn, `C/C(=C\C(=O)Nc1ccccc1C(=O)O)c1ccc2ccccc2c1` showed a viability of 127.

On to `CC[C@@H]1C(=O)N(C)c2cnc(Nc3ccc(C(=O)NC4CCN(C)CC4)cc3OC)nc2N1C1CCCC1`, for which the viability was determined as 41.8.

With `CCOc1ccc(Cc2cc([C@@H]3O[C@H](CO)[C@@H](O)[C@H](O)[C@H]3O)ccc2Cl)cc1`, the viability was found to be 130.

Consider `CCOC(=O)/C=C/[C@H](C[C@@H]1CCNC1=O)NC(=O)[C@@H](CC(=O)[C@@H](NC(=O)c1cc(C)on1)C(C)C)Cc1ccc(F)cc1`, for which the viability amounted to 142.

Turning to `CN1CCN(c2cccc(Nc3nc4c(-c5ccc([S+](C)(=O)[O-])cc5)cccn4n3)c2)CC1`, the viability was determined as 125.

For `CCN(CC)CC#CCOC(=O)C(O)(c1ccccc1)C1CCCCC1` (stereo not given), the viability turned out to be 127.

The compound `CC(C)(C)Cn1c(N)nc2ccc(-c3[nH]c(C(C)(C)C)nc3-c3ccc(F)cc3)nc21` returned a viability of 76.7.

In the case of `CC1(C)C(N(O)C(=O)Nc2ccc(Cl)cc2)N(c2ccc(Cl)cc2)C(=O)N1CC(=O)N/N=C/C=C/c1ccc([N+](=O)[O-])o1` (stereo not given), the viability was 85.4.

Regarding `CC(=O)Oc1ccccc1C(=O)O`, the viability is 118.

On to `CC(C)(C)c1cc(C=C(C#N)C#N)cc(Br)c1O`, for which the viability was determined as 101.

`OC[C@H]1O[C@@H]2[C@@H](OC\3=N\C(=N)\C=C/[N@@]23)[C@@H]1O`: the viability was 124.

On to `CCOC(=O)C(C#N)C\1C2=CC(=CC=C2O\C(=C1C(=O)OCC)N)Br` (stereo not given), for which the viability was found to be 120.

With `O=C(O)CCCCC(CCSCc1ccccc1)SCc1ccccc1` (stereo not given), the viability was 130.

`CC/C(=C(/CC)c1ccc(O)cc1)c1ccc(O)cc1` came in with a viability of 84.8.

In turn, `CCN(CCO)CCCOc1ccc2c(Nc3cc(CC(=O)Nc4cccc(F)c4)[nH]n3)ncnc2c1` gave a viability of 105.

Compound `CCc1cc(Nc2nccc(-c3c(-c4ccc(OC)c(C(=O)Nc5c(F)cccc5F)c4)nc4ccccn34)n2)c(OC)cc1N1CCC(N2CCN([S+](C)(=O)[O-])CC2)CC1` yielded a viability of 122.

As to `Cc1cc(Nc2cc(CN3CCOCC3)c3nc(C)c(Cc4ccc(Cl)cc4F)n3n2)[nH]n1`, the viability worked out at 74.1.

For `COc1nccc(-c2c(-c3ccc(F)cc3)ncn2C2CCNCC2)n1`, the viability worked out at 131.

`O=C(c1ccc(F)c(F)c1Nc1ccc(I)cc1F)N1CC(O)([C@@H]2CCCCN2)C1` returned a viability of 52.2.

With `C[C@@H](c1ncncc1F)[C@](O)(Cn1cncn1)c1ccc(F)cc1F`, the viability was found to be 96.3.

The compound `C[C@]\12CC[C@H](O)CC1=C/CC3C2CC[C@@]\4(C)C3C\C=C4[N]5C=NC6=C5C=CC=C6` (stereo not given in full) gave a viability of 108.

`C=C1C(=O)[C@@]23C(CC[C@@H]1[C@H]2O)[C@@]12CO[C@]3(O)[C@@H](O)[C@@H]1C(C)(C)CC[C@@H]2O` (stereo not given in full) returned a viability of 119.

Regarding `COc1ccc([C@@H]2CC(=O)c3c(O)cc(O[C@@H]4O[C@H](CO[C@@H]5O[C@@H](C)[C@H](O)[C@@H](O)[C@H]5O)[C@@H](O)[C@H](O)[C@H]4O)cc3O2)cc1O`, the viability was 94.4 and 102.

With `CNc1nccc(-c2cccnc2Oc2cc(C(=O)Nc3cccc(C(F)(F)F)c3)ccc2C)n1`, the viability came out at 98.

Compound `CC(C)C(=O)Nc1ccc([N+](=O)[O-])c(C(F)(F)F)c1` showed a viability of 85.7.

Regarding `C\C1=C\N([C@H]2C[C@H](N=[N+]=[N-])[C@@H](CO)O2)C(=O)NC1=O`, the viability was 113.

In turn, `CCN1CCN(C(=O)Cc2ccc(Nc3ncc(F)c(Nc4ccc(C(=O)Nc5ccccc5Cl)cc4)n3)cc2)CC1` displayed a viability of 55.5.

For the compound `CCOC(=O)C/1=C(O)/C(=O)N(CC2=CC=CC=C2)C1`, the viability was determined as 136.

With `CC(C)[N+]1(C)C2CCC1CC(OC(=O)C(CO)c1ccccc1)C2.O.[Br-]` (stereo not given), the viability amounted to 109.

In turn, `N#CC1(c2ccc(NC(=O)c3cccnc3NCc3ccncc3)cc2)CCCC1` returned a viability of 101.

With `COc1cnc(N[S+](=O)([O-])c2ccc(N)cc2)nc1`, the viability was 115.

The compound `COc1cc2c(NC3CCN(C(C)C)CC3)nc(C3CCCCC3)nc2cc1OCCCN1CCCC1` returned a viability of 82.3.

`C[C@H]1O[C@H]([C@H](O)[C@@H]1O)N2\C=C(F)/C(=O)NC2=O`: the viability was 124.

`CCCCOc1ccc(C(=O)Nc2ccc(F)cc2F)cc1` registered a viability of 101.

In the case of `C[C@H](NC(=O)[C@@H](O)c1cc(F)cc(F)c1)C(=O)N[C@@H]1C(=O)N(C)c2ccccc2-c2ccccc21`, the viability came out at 99.

Consider `CCCCOc1ccc(CC(=O)NO)cc1`, for which the viability turned out to be 109.

The same assay, now with this note: library / dose series: MIPE library, 11-point 1:3 dilution; top concentration 92.2 µM; 48 h.
As to `Nc1ccn([C@H]2CS[C@@H](CO)O2)c(=O)n1`, the viability was 106.
